The results in this text go back to publication PMC11954736 (BioImpacts : BI, 2024).

Data set [1] relates to B16. As to the kind of experiment: Cell viability assay. It is filed as cell-based, murine. The conditions noted are these: MTT, 48 h exposure; LD50: concentration that causes 50% of cell viability.
Data set [2] has as its system PC12 cells. As to the kind of experiment: Cell viability assay. The class given is cell-based, rat. The conditions noted are these: MTT, 48 h exposure, studied concentrations.
Data set [3] has as its system MCF7. As to the kind of experiment: Cell viability assay. The class given is cell-based, human. The conditions noted are these: MTT, 48 h exposure; LD50: concentration that causes 50% of cell viability.
Data set [4] deals with TNFα. As to the kind of experiment: Western blot of TNFα in rat hippocampal tissue. It is filed as in vivo, Wistar rats. The settings on record: Aβ induced AD rats, oral, 21 days.
Data set [5] has as its system NF-κB. Description: Western blot of NF-κB in rat hippocampal tissue. It is filed as in vivo, Wistar rats. The conditions noted are these: Aβ induced AD rats, oral, 21 days. Background: In western blotting, separated proteins are transferred to a membrane and probed.
Data set [6] has as its system Aβ-induced memory impairment in Wistar rats. Description: Morris water maze. The class given is in vivo. The conditions noted are these: Aβ induced AD rats, oral, 21 days; 3rd and fourth training days.

For the molecule `COc1ccc2c3c1O[C@H]1C[C@@H](O)C=C[C@@]31CCN(C)C2` [Galantamine], in data set [1], the “B16 (LD50 µM)” value was 34.09 µM. The “PC12 (LD50 µM)” value in data set [2] is on record as “No growth inhibition*”; in data set [2] (listed as galantamine), “no significant effect”. Besides, the “MCF7 (LD50 µM)” value in data set [3] amounted to 31.19 µM.
Regarding `COc1cc2c(cc1OC)C(=O)C(CC1CCN(Cc3ccccc3)CC1)C2` (stereo not shown) [Donepezil], the “TNFα level in hippocamp tissue (western blot)” value in data set [4] is “Downregulation”. In addition, in data set [5], the “NF-κB level in hippocamp tissue (western blot)” value is recorded as “Downregulation”. Besides, in data set [6], the “Escape latency time, MWM” value is “significantly decreased”.
